According to PMC9743094, “Synthesis and Evaluation of Polymyxins Bearing Reductively Labile Disulfide-Linked Lipids” (Journal of Medicinal Chemistry, 2022):
≈ marks a conversion by molar mass, not a printed value. Positions of bridges follow the written chain, without caps; N, C: chain ends. Non-standard residues stand in square brackets, D forms with d. Residues, ends and D or L forms follow the SMILES beside them. *: point of attachment. S(2-cyclohexylethyl) = C1CCC(CCS*)CC1; S(3-Methylbutyl) = CC(C)CCS*; Dab = NCC[C@H](N)C(=O)O; X1 = CC(C)CCCCS*; X4 = CCCCCCS*

Key:
[1] = tested on: A. baumannii (ATCC 19606); assay type: cell-based; settings: ATCC 19606
Protocol: (§1) Minimum inhibitory concentrations (MICs) on relevant Gram-negative bacteria were determined by broth microdilution, in accordance with CLSI guidelines. Indicated bacteria were taken from glycerol stocks and incubated overnight on blood agar at 37 °C. Well-isolated colonies were taken, suspended in TSB (5 mL), and grown to an OD600 of 0.5. Compounds to be tested were dissolved in DMSO (6.4 mg/mL), diluted in cation-adjusted Mueller–Hinton Broth (CAMHB) (12.5 and 20 μg/mL Mg^2+ and Ca^2+, respectively), and diluted serially on polypropylene microtiter plates. To the diluted compounds (50 μL per well) was added 50 μL of relevant bacterial suspension, to yield a final concentration of 10^6 CFU/mL. Plates were covered by adhesive gas-permeable membranes and incubated at 37 °C. MIC was read out as the lowest concentration that inhibited visual bacterial growth. Shown values are consistent results from at least duplicate experiments.

[2] = tested on: E. coli (ATCC 25922); assay type: cell-based; settings: ATCC 25922
Protocol: as §1

[3] = tested on: K. pneumoniae (ATCC 13883); assay type: cell-based; settings: ATCC 13883
Protocol: as §1

[4] = tested on: P. aeruginosa (ATCC 27853); assay type: cell-based; settings: ATCC 27853
Protocol: as §1

[5] = tested on: differentiated conditionally immortalized PTECs (ciPTECs, OAT-1); test: ciPTEC toxicity assay (PrestoBlue); assay type: cell-based, human
Protocol: ciPTECs (OAT-1) cells,[52],[53] grown to 90–100% confluence, were washed by Hanks’ balanced salt solution (HBSS; Gibco, Life Technologies, Paisley, U.K.) and detached by accutase (4 mL) for 5 min at 37 °C. The cells were then suspended in fresh medium (DMEM/F-12, supplemented with 10% fetal calf serum, insulin (5 μg/mL), transferrin (5 μg/mL), selenium (5 μg/mL) hydrocortisone (35 ng/mL), Epidermal Growth Factor (10 ng/mL) and tri-iodothyronine (40 pg/mL)). Cell density was adjusted to 2.0 × 10^5 cells/mL, of which 100 μL was added to each well of a 96-well plate. The cells were incubated for 24 h at 33 °C, followed by 6 days at 37 °C, in a humidified atmosphere containing 5% (v/v) CO2. The medium was refreshed every second or third day.
Compounds were dissolved and serially diluted in serum-free medium. Differentiated cells were washed once with HBSS and serially diluted compounds (80 μL/well) were transferred to the ciPTEC-containing plate. Compounds were incubated for 24 h at 37 °C; the cells were washed by HBSS, followed by incubation with 10% PrestoBlue cell viability reagent (Thermo Scientific, Vienna, Austria) in HBSS at 37 °C in the dark. Fluorescence was recorded (excitation: 530 nm, emission: 590 nm). Raw data are corrected for PrestoBlue background fluorescence and reported relative to the no-treatment control (cells with medium only). Viability data were fitted with GraphPad Prism software (version 5.03; GraphPad Software, La Jolla, CA), by nonlinear regression with 0 as bottom constraint. Presented data are based on triplicates.
Toxicity assessment on PTECs
Table S1. TC50 values for polymyxin analogues. Toxicity assessment on proximal tubular epithelial cells
performed using PrestoBlue™ assay. TC50 values are derived after non-linear regression analysis on cell viability
correspond to data obtained from 2 different batches of cells/analyses on different days. As the value for
polymyxin B differs 2-fold, values in the manuscript are presented relative to the polymyxin B value.
Compound TC50 (µ M) Compound TC50 (µ M)
Polymyxin B 80 Polymyxin B 41
Figure S3. Representative traces of ciPTECs’ viability after incubation with analogues for 24 hours. Shown data are based on […]

Row | SMILES | MIC A. baumannii (ATCC 19606) [1] [µg/mL] | MIC E. coli (ATCC 25922) [2] [µg/mL] | MIC K. pneumoniae (ATCC 13883) [3] [µg/mL] | MIC P. aeruginosa (ATCC 27853) [4] [µg/mL] | TC50, Day 1 [5] [µM] | ciPTEC Toxicity Index (relative to polymyxin B) [5] | TC50, Day 2 [5] [µM]
1 | CCCCCCSSC[C@H](N)C(=O)N[C@H](C(=O)N[C@@H](CCN)C(=O)N[C@H]1CCNC(=O)[C@H]([C@@H](C)O)NC(=O)[C@H](CCN)NC(=O)[C@H](CCN)NC(=O)[C@H](CC(C)C)NC(=O)[C@@H](Cc2ccccc2)NC(=O)[C@H](CCN)NC1=O)[C@@H](C)O [Compound 17a] (H-C(X4)T[Dab][Dab][Dab][dF]L[Dab][Dab]T; lactam 4-C) | >32 | 8 (≈ 6.77 µM) | 4 (≈ 3.38 µM) | 2 (≈ 1.69 µM) | 421 | 5.3 | –
2 | CCCCCCSSC[C@@H](N)C(=O)N[C@H](C(=O)N[C@@H](CCN)C(=O)N[C@H]1CCNC(=O)[C@H]([C@@H](C)O)NC(=O)[C@H](CCN)NC(=O)[C@H](CCN)NC(=O)[C@H](CC(C)C)NC(=O)[C@@H](Cc2ccccc2)NC(=O)[C@H](CCN)NC1=O)[C@@H](C)O [Compound 17b] (H-[dC](X4)T[Dab][Dab][Dab][dF]L[Dab][Dab]T; lactam 4-C) | 1 (≈ 0.846 µM) | 2 (≈ 1.69 µM) | 0.5 (≈ 0.423 µM) | 2 (≈ 1.69 µM) | 240 | 3.0 | –
3 | CC(C)CCSSC[C@H](N)C(=O)N[C@H](C(=O)N[C@@H](CCN)C(=O)N[C@H]1CCNC(=O)[C@H]([C@@H](C)O)NC(=O)[C@H](CCN)NC(=O)[C@H](CCN)NC(=O)[C@H](CC(C)C)NC(=O)[C@@H](Cc2ccccc2)NC(=O)[C@H](CCN)NC1=O)[C@@H](C)O [Compound 18a] (H-C(S(3-Methylbutyl))T[Dab][Dab][Dab][dF]L[Dab][Dab]T; lactam 4-C) | >32 | 16 (≈ 13.7 µM) | 8 (≈ 6.85 µM) | 2 (≈ 1.71 µM) | 786 | 9.8 | –
4 | CC(C)C[C@@H]1NC(=O)[C@@H](Cc2ccccc2)NC(=O)[C@H](CCN)NC(=O)[C@@H](NC(=O)[C@H](CCN)NC(=O)[C@@H](NC(=O)[C@H](N)CSSCCC2CCCCC2)[C@@H](C)O)CCNC(=O)[C@H]([C@@H](C)O)NC(=O)[C@H](CCN)NC(=O)[C@H](CCN)NC1=O [Compound 19b] (H-[dC](S(2-cyclohexylethyl))T[Dab][Dab][Dab][dF]L[Dab][Dab]T; lactam 4-C) | 1 (≈ 0.827 µM) | 1 (≈ 0.827 µM) | 1 (≈ 0.827 µM) | 2 (≈ 1.65 µM) | – | – | 51
5 | CC(C)CCCCSSC[C@@H](N)C(=O)N[C@H](C(=O)N[C@@H](CCN)C(=O)N[C@H]1CCNC(=O)[C@H]([C@@H](C)O)NC(=O)[C@H](CCN)NC(=O)[C@H](CCN)NC(=O)[C@H](CC(C)C)NC(=O)[C@@H](Cc2ccccc2)NC(=O)[C@H](CCN)NC1=O)[C@@H](C)O [Compound 20b] (H-[dC](X1)T[Dab][Dab][Dab][dF]L[Dab][Dab]T; lactam 4-C) | 2 (≈ 1.67 µM) | 4 (≈ 3.34 µM) | 2 (≈ 1.67 µM) | 16 (≈ 13.4 µM) | – | 3.3 | 135
6 | CCCCCCSSC[C@@H](NC(=O)CN)C(=O)N[C@H](C(=O)N[C@@H](CCN)C(=O)N[C@H]1CCNC(=O)[C@H]([C@@H](C)O)NC(=O)[C@H](CCN)NC(=O)[C@H](CCN)NC(=O)[C@H](CC(C)C)NC(=O)[C@@H](Cc2ccccc2)NC(=O)[C@H](CCN)NC1=O)[C@@H](C)O [Compound 21b] (H-G[dC](X4)T[Dab][Dab][Dab][dF]L[Dab][Dab]T; lactam 5-C) | 1 (≈ 0.807 µM) | 2 (≈ 1.61 µM) | 1 (≈ 0.807 µM) | 2 (≈ 1.61 µM) | 357 | 4.4 | –
